One assay has as its target T1, hEP4 (Homo sapiens, UniProt P35408).
T1 construct: expressed in transfected cells; host or cells: HEK293
Nature of the assay: hEP4 cAMP assay. The following applies: HEK293 cells overexpressing hEP4; PGE2 agonist 20 nM; graded per Table 21; read-out: IC50 (nM) EP4 cAMP. The class given is cell-based. An outline of the steps:
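HEK293 cells overexpressing hEP4, starved 4 h, were treated with compound (10 μM-0.001 nM) plus 20 nM PGE2 (EC50-80) in HBSS buffer with 0.5 mM IBMX for 18.5 min at room temperature. cAMP was read by TR-FRET (665/615 nm) as % of DMSO control; IC50 from 4-parameter fit, median of multiple experiments.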
(Cyclic AMP is a second messenger, typically raised through Gs and lowered through Gi signalling.)

The next assay has as its target T2, hEP2 (Homo sapiens, UniProt P43116).
T2 construct: expressed in transfected cells; host or cells: HEK293
Nature of the assay: hEP2 cAMP assay. The class given is cell-based. The following applies: HEK293 cells overexpressing hEP2; PGE2 agonist 400 pM; graded per Table 21; read-out: IC50 (nM) EP2 cAMP. An outline of the steps:
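HEK293 cells overexpressing hEP2, serum-starved 4 h, then 1,000 cells/well treated with compound (10 μM–0.001 nM) plus 400 pM PGE2 (about EC50-80) in HBSS buffer with 0.5 mM IBMX for 12 min at room temperature. cAMP measured by TR-FRET (665/615 nm) as % of DMSO control; IC50 from 4-parameter fit, median of repeats.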

Where only a bound is given, the exact number is not on record here.

This passage reports IC50 results from US20230365582A1, “NOVEL COMPOUNDS HAVING INHIBITORY ACTIVITY ON PROSTAGLANDIN E2 RECEPTOR AND USES THEREOF” (KANAPH THERAPEUTICS INC., priority 2020, published 2023).

T2 sequence (P43116 whole entry): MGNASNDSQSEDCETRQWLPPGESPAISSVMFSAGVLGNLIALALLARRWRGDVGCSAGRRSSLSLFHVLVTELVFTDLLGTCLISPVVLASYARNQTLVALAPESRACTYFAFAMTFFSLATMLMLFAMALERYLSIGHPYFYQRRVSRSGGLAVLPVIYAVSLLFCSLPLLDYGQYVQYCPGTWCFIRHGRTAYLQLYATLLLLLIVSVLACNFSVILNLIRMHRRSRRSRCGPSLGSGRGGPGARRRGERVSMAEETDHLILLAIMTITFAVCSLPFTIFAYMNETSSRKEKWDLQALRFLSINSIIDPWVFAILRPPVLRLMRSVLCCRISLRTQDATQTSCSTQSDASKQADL
T1 sequence (P35408 whole entry): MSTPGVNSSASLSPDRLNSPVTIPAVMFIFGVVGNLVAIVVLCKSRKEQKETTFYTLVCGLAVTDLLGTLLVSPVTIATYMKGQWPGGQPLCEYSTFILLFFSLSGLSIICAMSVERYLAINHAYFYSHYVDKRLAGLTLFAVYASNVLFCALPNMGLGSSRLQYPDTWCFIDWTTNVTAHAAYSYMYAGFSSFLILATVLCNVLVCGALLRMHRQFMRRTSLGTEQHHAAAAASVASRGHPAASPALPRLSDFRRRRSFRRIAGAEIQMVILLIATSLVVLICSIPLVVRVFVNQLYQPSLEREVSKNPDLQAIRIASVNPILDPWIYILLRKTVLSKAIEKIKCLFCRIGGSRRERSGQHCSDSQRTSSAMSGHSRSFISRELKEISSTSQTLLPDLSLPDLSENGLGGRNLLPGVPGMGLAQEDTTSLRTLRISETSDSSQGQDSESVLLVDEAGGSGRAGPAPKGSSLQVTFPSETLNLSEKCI

What is called IC50 is the concentration that gives 50% inhibition. In the case of `Cc1sc(C)c(C(=O)NC2CC3(C2)CC(C(=O)O)C3)c1Cc1ccc(-c2cc(F)cc(S(C)(=O)=O)c2)cc1` (stereo not drawn) [Example 56, 6-(4-((3′-fluoro-5′-(methylsulfonyl)-[1,1′-biphenyl]-4-yl)methyl)-2,5-dimethylthiophene-3-carboxamido)spiro[3.3]heptane-2-carboxylic acid], the half-maximal inhibitory concentration (IC50) is 5000 to 10000 nM on hEP4 and over 10000 nM on hEP2.
As for `Cc1sc(C)c(C(=O)NC2CC3(C2)CC(C(=O)O)C3)c1Cc1ccc(-c2cc(F)cc(C(N)=O)c2)cc1` (stereo not drawn) [Example 57, 6-(4-((3′-carbamoyl-5′-fluoro-[1,1′-biphenyl]-4-yl)methyl)-2,5-dimethylthiophene-3-carboxamido)spiro[3.3]heptane-2-carboxylic acid], the IC50 at hEP4 is under 500 nM; at hEP2, 500 to 5000 nM.
`COc1cc(C(N)=O)cc(-c2ccc(Cc3c(C)sc(C)c3C(=O)NC3CC4(C3)CC(C(=O)O)C4)cc2)c1` (stereo not drawn) [Example 58, 6-(4-((3′-carbamoyl-5′-methoxy-[1,1′-biphenyl]-4-yl)methyl)-2,5-dimethylthiophene-3-carboxamido)spiro[3.3]heptane-2-carboxylic acid]: the IC50 at hEP4 is under 500 nM; on hEP2, 500 to 5000 nM.
As to `COc1cc(CNC(=O)OC(C)(C)C)cc(-c2ccc(Cc3c(C)sc(C)c3C(=O)NC3CC4(C3)CC(C(=O)O)C4)cc2)c1` (stereo not drawn) [Example 59, 6-(4-((3′-(((tert-butoxycarbonyl)amino)methyl)-5′-methoxy-[1,1′-biphenyl]-4-yl)methyl)-2,5-dimethylthiophene-3-carboxamido)spiro[3.3]heptane-2-carboxylic acid], the figures for the concentration for half-maximal inhibition (IC50) on hEP4 and on hEP2 were 500 to 5000 nM and over 10000 nM, respectively.
Regarding `Cc1sc(C)c(C(=O)NC2CC3(C2)CC(C(=O)O)C3)c1Cc1ccc(-c2cc(F)cc(CO)c2)cc1` (stereo not drawn) [Example 60, 6-(4-((3′-fluoro-5′-(hydroxymethyl)-[1,1′-biphenyl]-4-yl)methyl)-2,5-dimethylthiophene-3-carboxamido)spiro[3.3]heptane-2-carboxylic acid], the IC50 is under 500 nM at hEP4 and 5000 to 10000 nM at hEP2.
For the molecule `COc1cc(-c2ccc(Cc3c(C)sc(C)c3C(=O)NC3CC4(C3)CC(C(=O)O)C4)cc2)cc(C2(O)COC2)c1` (stereo not drawn) [Example 61, 6-(4-((3′-(3-hydroxyoxetane-3-yl)-5′-methoxy-[1,1′-biphenyl]-4-yl)methyl)-2,5-dimethylthiophene-3-carboxamido)spiro[3.3]heptane-2-carboxylic acid], the results for the IC50 on hEP4 and on hEP2 were 500 to 5000 nM and over 10000 nM, respectively.
On the same counts, the results for `COc1cc(-c2ccc(Cc3c(C)sc(C)c3C(=O)NC3CC4(C3)CC(C(=O)O)C4)cc2)cc(N2CCC2=O)c1` (stereo not drawn) [Example 62, 6-(4-((3′-methoxy-5′-(2-oxoazetidin-1-yl)-[1,1′-biphenyl]-4-yl)methyl)-2,5-dimethylthiophene-3-carboxamido)spiro[3.3]heptane-2-carboxylic acid] are under 500 nM and 500 to 5000 nM.
For `[H][C@]1(C(=O)O)C[C@]2(C[C@H](NC(=O)c3c(C)sc(C)c3Cc3ccc(-c4cc(OC)cc(N5CCC5=O)c4)cc3)C2)C1` (stereo partly drawn) [Example 63, (2R,4R,6R)-6-(4-((3′-methoxy-5′-(2-oxoazetidin-1-yl)-[1,1′-biphenyl]-4-yl)methyl)-2,5-dimethylthiophene-3-carboxamido)spiro[3.3]heptane-2-carboxylic acid], the IC50 on hEP4 and at hEP2 was under 500 nM throughout.
Consider `Cc1sc(C)c(C(=O)NC2CC3(C2)CC(C(=O)O)C3)c1Cc1ccc(-c2cc(F)cc(CN)c2)cc1` (stereo not drawn) [Example 64, 6-(4-((3′-(aminomethyl)-5′-fluoro-[1,1′-biphenyl]-4-yl)methyl)-2,5-dimethylthiophene-3-carboxamido)spiro[3.3]heptane-2-carboxylic acid], for which the figures for the IC50 at hEP4 and at hEP2 were 500 to 5000 nM and over 10000 nM, respectively.
As for `Cc1sc(C)c(C(=O)NC2CC3(C2)CC(C(=O)O)C3)c1Cc1ccc(-c2cc(F)cc(C3CNC3)c2)cc1` (stereo not drawn) [Example 65, 6-(4-((3′-(azetidin-3-yl)-5′-fluoro-[1,1′-biphenyl]-4-yl)methyl)-2,5-dimethylthiophene-3-carboxamido)spiro[3.3]heptane-2-carboxylic acid], the values for the half-maximal inhibitory concentration (IC50) at hEP4 and on hEP2 were 500 to 5000 nM and over 10000 nM, respectively.
With `COc1cc(CN)cc(-c2ccc(Cc3c(C)sc(C)c3C(=O)NC3CC4(C3)CC(C(=O)O)C4)cc2)c1` (stereo not drawn) [Example 66, 6-(4-((3′-(aminomethyl)-5′-methoxy-[1,1′-biphenyl]-4-yl)methyl)-2,5-dimethylthiophene-3-carboxamido)spiro[3.3]heptane-2-carboxylic acid], the IC50 on hEP4 is 500 to 5000 nM; at hEP2, over 10000 nM.
On to `Cc1sc(C)c(C(=O)NC2CC3(C2)CC(C(=O)O)C3)c1Cc1ccc(C2CCCCC2)cc1` (stereo not drawn) [Example 67, 6-(4-(4-cyclohexylbenzyl)-2,5-dimethylthiophene-3-carboxamido)spiro[3.3]heptane-2-carboxylic acid], for which the IC50 is 5000 to 10000 nM on hEP4 and over 10000 nM on hEP2.
For `Cc1sc(C)c(C(=O)NC2CC3(C2)CC(C(=O)O)C3)c1Cc1ccc(C2CCNCC2)cc1` (stereo not drawn) [Example 68, 6-(2,5-dimethyl-4-(4-(piperidin-4-yl)benzyl)thiophene-3-carboxamido)spiro[3.3]heptane-2-carboxylic acid], the IC50 on hEP4 and on hEP2 was over 10000 nM each time.
Turning to `Cc1sc(C)c(C(=O)NC2CC3(C2)CC(C(=O)O)C3)c1Cc1ccc(-c2ccc(F)cc2)cc1` (stereo not drawn) [Example 69, 6-(4-((4′-fluoro-[1,1′-biphenyl]-4-yl)methyl)-2,5-dimethylthiophene-3-carboxamido)spiro[3.3]heptane-2-carboxylic acid], the IC50 is under 500 nM at hEP4 and 500 to 5000 nM at hEP2.
As for `Cc1sc(C)c(C(=O)NC2CC3(C2)CC(C(=O)O)C3)c1Cc1ccc(-c2cc(F)cc(C#N)c2)cc1` (stereo not drawn) [Example 70, 6-(4-((3′-cyano-5′-fluoro-[1,1′-biphenyl]-4-yl)methyl)-2,5-dimethylthiophene-3-carboxamido)spiro[3.3]heptane-2-carboxylic acid], the IC50 at hEP4 was under 500 nM; at hEP2, 5000 to 10000 nM.
On the same counts, the results for `Cc1sc(C)c(C(=O)NC2CC3(C2)CC(C(=O)O)C3)c1Cc1ccc(-c2cc(O)cc(F)c2)cc1` (stereo not drawn) [Example 71, 6-(4-((3′-fluoro-5′-hydroxy-[1,1′-biphenyl]-4-yl)methyl)-2,5-dimethylthiophene-3-carboxamido)spiro[3.3]heptane-2-carboxylic acid] are under 500 nM and 500 to 5000 nM.
Turning to `Cc1sc(C)c(C(=O)NC2CC3(C2)CC(C(=O)O)C3)c1Cc1ccc(-c2ccnc(O)c2)cc1` (stereo not drawn) [Example 72, 6-(4-(4-(2-hydroxypyridin-4-yl)benzyl)-2,5-dimethylthiophene-3-carboxamido)spiro[3.3]heptane-2-carboxylic acid], the IC50 at hEP4 and on hEP2 was over 10000 nM throughout.
On to `Cc1sc(C)c(C(=O)N(C)C2CC3(CC(C(=O)O)C3)C2)c1Cc1ccc(-c2ccccc2)cc1` (stereo not drawn) [Example 73, 6-(4-([1,1′-biphenyl]-4-ylmethyl)-N,2,5-trimethylthiophene-3-carboxamido)spiro[3.3]heptane-2-carboxylic acid], for which the IC50 at hEP4 and on hEP2 was over 10000 nM each time.
Consider `Cc1sc(C)c(C(=O)NC2CC3(C2)CC(C(=O)O)C3)c1Oc1ccc(-c2ccccc2)cc1` (stereo not drawn) [Example 74, 6-(4-([1,1′-biphenyl]-4-yloxy)-2,5-dimethylthiophene-3-carboxamido)spiro[3.3]heptane-2-carboxylic acid], for which the half-maximal inhibitory concentration (IC50) on hEP4 and at hEP2 was over 10000 nM in each case.
Take `Cc1sc(C)c(C(=O)NC2CC3(C2)CC(C(=O)O)C3)c1Nc1ccc(-c2ccccc2)cc1` (stereo not drawn) [Example 75, 6-(4-([1,1′-biphenyl]-4-ylamino)-2,5-dimethylthiophene-3-carboxamido)spiro[3.3]heptane-2-carboxylic acid]: the IC50 on hEP4 and at hEP2 was over 10000 nM each time.
In the case of `Cc1sc(C)c(N(C)c2ccc(-c3ccccc3)cc2)c1C(=O)NC1CC2(C1)CC(C(=O)O)C2` (stereo not drawn) [Example 76, 6-(4-([1,1′-biphenyl]-4-yl(methyl)amino)-2,5-dimethylthiophene-3-carboxamido)spiro[3.3]heptane-2-carboxylic acid], the IC50 at hEP4 was 500 to 5000 nM; at hEP2 it was over 10000 nM.
For `Cc1sc(C)c(C(=O)NC2CC3(C2)CC(C(=O)O)C3)c1CN1CCN(c2ccccc2)CC1` (stereo not drawn) [Example 77, 6-(2,5-dimethyl-4-((4-phenylpiperazin-1-yl)methyl)thiophene-3-carboxamido)spiro[3.3]heptane-2-carboxylic acid], the IC50 at hEP4 and on hEP2 was over 10000 nM each time.
Consider `Cc1sc(C)c(C(=O)NC2CC3(C2)CC(C(=O)O)C3)c1Cn1cc(-c2ccccc2)cn1` (stereo not drawn) [Example 78, 6-(2,5-dimethyl-4-((4-phenyl-1H-pyrazol-1-yl)methyl)thiophene-3-carboxamido)spiro[3.3]heptane-2-carboxylic acid], for which the figures for the IC50 on hEP4 and at hEP2 were 5000 to 10000 nM and over 10000 nM, respectively.
Regarding `O=C(NC1CC2(C1)CC(C(=O)O)C2)c1csc2ccn(Cc3ccc(-c4ccccc4)cc3)c12` (stereo not drawn) [Example 79, 6-(4-([1,1′-biphenyl]-4-ylmethyl)-4H-thieno[3,2-b]pyrrole-3-carboxamido)spiro[3.3]heptane-2-carboxylic acid], the IC50 at hEP4 and on hEP2 was under 500 nM in each case.
